How the values were obtained:
[1] = 298.15 K; 101.33 kPa; Liquid; Vibrating tube method
[2] = refractive index (Na D-line) (dimensionless); settings: 298.15 K; 101.33 kPa; Liquid
[3] = xn = mol fraction of the nth substance listed; settings: 298.15 K, 101.32 kPa, Liquid, Vibrating tube method
[4] = refractive index (Na D-line) (dimensionless); xn = mol fraction of the nth substance listed; settings: 298.15 K, 101.32 kPa, Liquid

CCO [ethanol]
Settings | mass density [kg/m3] | refractive index
[1] | 785.32 | –
[2] | – | 1.3592

CCI [iodoethane]
Settings | mass density [kg/m3] | refractive index
[1] | 1923.75 | –
[2] | – | 1.5095

CCI [iodoethane] + CCCO
Settings | mass density, [3] [kg/m3] | refractive index, [4]
x2 = 0.0332 | 1887.25 | 1.505
x2 = 0.0469 | 1872.23 | 1.503
x2 = 0.0528 | 1865.57 | 1.502
x2 = 0.2862 | 1611.62 | 1.4688
x2 = 0.3861 | 1501.9 | 1.4567
x2 = 0.4714 | 1407.06 | 1.447
x2 = 0.5981 | 1264.7 | 1.4299
x2 = 0.6984 | 1150.74 | 1.418
x2 = 0.7894 | 1046.25 | 1.4077
x2 = 0.8728 | 949.54 | 1.397
x2 = 0.9101 | 905.96 | 1.393

CCI [iodoethane] + CCO
Settings | mass density, [3] [kg/m3] | refractive index, [4]
x2 = 0.0481 | 1880.86 | 1.503
x2 = 0.0942 | 1839.5 | 1.4971
x2 = 0.2302 | 1712.7 | 1.479
x2 = 0.29 | 1654.4 | 1.4701
x2 = 0.3989 | 1543.6 | 1.4535
x2 = 0.4889 | 1447.12 | 1.442
x2 = 0.6035 | 1316.7 | 1.4241
x2 = 0.687 | 1215.7 | 1.4093
x2 = 0.7935 | 1078.8 | 1.3929
x2 = 0.8994 | 933.27 | 1.3761
x2 = 0.9522 | 856.7 | 1.3675

CCI [iodoethane] + CO
Settings | mass density, [3] [kg/m3] | refractive index, [4]
x2 = 0.1198 | 1843.6 | 1.4964
x2 = 0.1399 | 1829.8 | 1.4938
x2 = 0.2068 | 1783 | 1.4869
x2 = 0.26 | 1743.6 | 1.4787
x2 = 0.4066 | 1622.2 | 1.4578
x2 = 0.4234 | 1606.9 | 1.4553
x2 = 0.4808 | 1552.1 | 1.4451
x2 = 0.4954 | 1537.5 | 1.4436
x2 = 0.5699 | 1458.5 | 1.4302
x2 = 0.6771 | 1329.5 | 1.4084
x2 = 0.7989 | 1156.8 | 1.3821
x2 = 0.9094 | 969.6 | 1.3534

CCI [iodoethane] + Cc1ccccc1
Settings | mass density, [3] [kg/m3] | refractive index, [4]
x2 = 0.1279 | 1749.5 | 1.5056
x2 = 0.2014 | 1655.8 | 1.5038
x2 = 0.3085 | 1526.9 | 1.5012
x2 = 0.3955 | 1428.3 | 1.5002
x2 = 0.4476 | 1371.7 | 1.499
x2 = 0.4678 | 1350.2 | 1.4992
x2 = 0.4961 | 1320.5 | 1.4983
x2 = 0.5735 | 1241.7 | 1.4974
x2 = 0.6009 | 1214.7 | 1.4968
x2 = 0.6974 | 1122.5 | 1.4959
x2 = 0.7276 | 1094.6 | 1.4957
x2 = 0.7984 | 1031 | 1.4948
x2 = 0.8866 | 954.9 | 1.4943
x2 = 0.9322 | 916.9 | 1.494

CO [methanol]
Settings | mass density [kg/m3] | refractive index
[1] | 787.98 | –
[2] | – | 1.3262

CCCO [propan-1-ol]
Settings | mass density [kg/m3] | refractive index
[1] | 799.69 | –
[2] | – | 1.3829

Cc1ccccc1 [toluene]
Settings | mass density [kg/m3] | refractive index
[1] | 862.28 | –
[2] | – | 1.4938

Cc1ccccc1 [toluene] + CCCO
Settings | mass density, [3] [kg/m3] | refractive index, [4]
x1 = 0.0609 | 805.41 | 1.3918
x1 = 0.0969 | 808.53 | 1.397
x1 = 0.1939 | 816.4 | 1.4108
x1 = 0.3036 | 824.3 | 1.4249
x1 = 0.3965 | 830.4 | 1.4349
x1 = 0.4988 | 836.58 | 1.4469
x1 = 0.5524 | 839.64 | 1.4509
x1 = 0.5932 | 841.82 | 1.4533
x1 = 0.692 | 847.02 | 1.466
x1 = 0.77 | 851.01 | 1.473
x1 = 0.9274 | 858.78 | 1.4873
x1 = 0.9343 | 859.08 | 1.488

Cc1ccccc1 [toluene] + CCO
Settings | mass density, [3] [kg/m3] | refractive index, [4]
x1 = 0.0476 | 792.25 | 1.3699
x1 = 0.1205 | 801.71 | 1.385
x1 = 0.1948 | 810 | 1.3993
x1 = 0.2994 | 820.14 | 1.4163
x1 = 0.3992 | 828.34 | 1.4311
x1 = 0.4884 | 834.71 | 1.443
x1 = 0.5577 | 839.3 | 1.4518
x1 = 0.5994 | 841.81 | 1.4565
x1 = 0.7159 | 848.36 | 1.4682
x1 = 0.7646 | 850.92 | 1.4732
x1 = 0.8915 | 857.06 | 1.485
x1 = 0.8917 | 857.09 | 1.485

Cc1ccccc1 [toluene] + CO
Settings | mass density, [3] [kg/m3] | refractive index, [4]
x1 = 0.0491 | 797.2 | 1.3464
x1 = 0.1058 | 806.2 | 1.366
x1 = 0.199 | 818.1 | 1.3921
x1 = 0.3361 | 831.1 | 1.4215
x1 = 0.4097 | 836.6 | 1.4337
x1 = 0.4501 | 839.2 | 1.4402
x1 = 0.5024 | 842.4 | 1.4478
x1 = 0.5393 | 844.4 | 1.4527
x1 = 0.5818 | 846.6 | 1.4579
x1 = 0.6961 | 851.7 | 1.47
x1 = 0.7764 | 854.8 | 1.4778
x1 = 0.8695 | 858 | 1.485
x1 = 0.9416 | 860.2 | 1.4904
